Values quoted from earlier work as cited in US7459141B2, “Technetium-99m-labeled organic germanium nanocolloids, method of preparing the same and use thereof” (Korea Atomic Energy Research Institute, priority 2006, dated 2008).

O=C(O)C[CH2][Ge](=[O])[O][Ge](=[O])[CH2]CC(=O)O [Ge-132, bis-carboxyethylgermanium sesquioxide]
tissue concentration after an intravenous (i.v) injection (intravenous): concentrates in liver, kidney, spleen and gastrointestine tract | tissue concentration after an oral administration (oral): concentrates highly in spleen
